Like-named read-outs stand apart in the source and are kept apart here.
Tests used:
Assay type in all cases: cell-based
Caski (HPV16+) cells = assay: Cell proliferation/viability assay, Caski cells; conditions: Homo sapiens, Ca-Ski, 96 h, 4 days
Method: (§1) Caski (catalog number CRL-1550), SiHa (catalog number HTB-35), C33A (catalog number HTB-31), Saos-2 (ATCC HTB-85), and Hela (catalog number CCL-2) cells were obtained from the American Type Culture Collection (ATCC). The human cervical carcinoma cell lines Caski. SiHa, Hela and C33A, and the human osteosarcoma cell line Saos-2, and the human keratinocyte cell line HaCaT were cultured in Dulbecco's Modified Eagle Medium (DMEM, Invitrogen catalog number 11965-092) supplemented with 10% fetal bovine serum. The colorectal carcinoma cell line HCT-116 was cultured in Roswell Park Memorial Institute-1640 Medium (Invitrogen catalog number 11875-093) supplemented with 10% FBS. All cells were incubated at 37° C. in a humidified atmosphere with 5% CO2 in air. To establish the SCHPV-18 cell line, one million primary neonatal human foreskin keratinocytes (Invitrogen, catalog no. C-001-5C), cultured in KBM Gold-keratinocvte cell basal medium (Lonza, catalog no. 192060), were electroporated with 5 μg HPV-18 plasmid DNA (ATCC catalog no. 45152D) using the Amaxa Nucleofector II on setting T-007. Cells were co-transfected with 2 μg plasmid pZSGreen1-N1 (Clontech catalog no. 632448) encoding G418 resistance, and cells were selected for four days in 100 μg/ml G418, after which selection was removed. Cells were maintained in culture six months prior to compound testing. Integration of the HPV 18 genome was confirmed by Southern blot. Control cells transfected in parallel with pZSGreen1-N1 alone became senescent four days after selection and the culture could not be expanded. SCHPV-18 cells were maintained in E medium (Fehrmann F, Laimins L A. Human papillomavirus type 31 life cycle: methods for study using tissue culture models. Methods Mol Biol 2005; 292:317-330).
(§2) For proliferation assays, cells were plated in white polystyrene 96-well plates (Costar catalog number 3917) for CellTiter Glo viability assays or 96-well special optics plates (Costar cat #3614) for CellTiter Blue viability assays. Cells were plated in the appropriate growth medium without antibiotics. Two hours after cell plating, a 200× compound stock diluted in DMSO was added to a final concentration of 0.5%. Plates were incubated at 37° C., for 4 days and then cell viability was assessed using either CellTiter Blue (Promega catalog number G8081) or CellTiter Glo (Promega catalog number G7572) according to the manufacturer's instructions. For the CellTiter Blue viability assay, data was collected using the SpectraMax Gemini EM (Molecular Devices) with an excitation wavelength of 530 nm and emission wavelength of 590 nm. For the CellTiter Glo viability assay, data was collected using the Envision Mulitlabel Reader (Perkin Elmer catalog number 2104-0010). To calculate IC50 and EC50 values, percent inhibition curves were fit using a four-parameter logistic formula [y=A+[…]], where A and B denote minimal and maximal % inhibition, respectively, C is the IC50 value, D is the Hill slope, and x represents compound concentration.
(§3) Table C, below, sets out the results obtained employing various compounds of the invention tested for their effects on proliferation of such cells. Caski or SiHa cells, transformed by HPV 16, Hela cells, transformed by HPV 18, or HPV-negative control cell lines (Saos-2 or C33a) were treated with various compounds. […] Unlike the HPV-negative Saos-2 or C33a cell lines, the HPV-transformed cell lines rely on the presence of HPV for their continued proliferation. Therefore, a comparison of IC50 values from HPV-transformed cell lines with IC50 values obtained from HPV-negative cell lines can be used to test for compound selectivity.

C33A (HPV−) cells = assay: Cell proliferation/viability assay, C33A cells; conditions: Homo sapiens, C-33-A, 96 h
Method: as §1, §2, §3

HeLa (HPV18+) cells = assay: Cell proliferation/viability assay, HeLa cells; conditions: Homo sapiens, 96 h, 4 days
Method: as §1, §2, §3

Saos-2 (HPV−) cells = assay: Cell proliferation/viability assay, Saos-2 cells; conditions: Homo sapiens
Method: as §1, §2, §3

SiHa (HPV16+) cells = assay: Cell proliferation/viability assay, SiHa cells; conditions: Homo sapiens, 96 h, 4 days
Method: as §1, §2, §3

PAR4 = molecular target: T1, PAR4 (Homo sapiens, UniProt Q96RI0); assay: PAR4 FLIPR assay (calcium mobilization, antagonist activity) in PAR4-expressing HEK293 cells
T1 construct: expressed in transfected cells; host or cells: HEK293 PAR4 Clone 1.2A
T1 sequence (Q96RI0 18-385): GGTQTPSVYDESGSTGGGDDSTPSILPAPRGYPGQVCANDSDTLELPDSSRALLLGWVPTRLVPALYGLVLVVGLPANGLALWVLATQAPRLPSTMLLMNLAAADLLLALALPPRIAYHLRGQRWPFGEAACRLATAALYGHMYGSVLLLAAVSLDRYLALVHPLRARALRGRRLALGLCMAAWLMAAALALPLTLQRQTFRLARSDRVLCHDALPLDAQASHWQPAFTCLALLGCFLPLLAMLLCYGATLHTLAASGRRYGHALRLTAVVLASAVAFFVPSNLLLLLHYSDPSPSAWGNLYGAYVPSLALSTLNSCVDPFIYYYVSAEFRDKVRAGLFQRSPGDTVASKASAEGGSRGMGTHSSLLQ
Excerpt: The FLIPR assay is an exemplary in vitro assay for measuring the activity of the PAR4 antagonists of the present invention. In this assay, intracellular calcium mobilization is induced in PAR4 expressing cells by a PAR4 agonist and calcium mobilization is monitored.
HEK293 cells stably expressing PAR4 were generated by a standard method of transfection of human PAR4 (F2R23) cDNA expression vector and selected based on PAR4 protein expression or mRNA expression. […] These cells also express endogenous PAR1 and can elicit calcium signal upon stimulation with PAR1 agonist peptide. Therefore, the same cells were also used to determine selectivity against PAR1 and agonist activity for both receptors. Cells from HEK293 PAR4 Clone 1.2A (BMS Arctic ID 383940) were propagated and used for calcium mobilization studies.
FLIPR-based calcium mobilization assay in HEK293 cells was used to measure PAR4 antagonism, agonism, and selectivity against PAR1. The activity of the PAR4 antagonists of the present invention were tested in PAR4 expressing cells by monitoring H-Ala-Phe(4-F)-[…]NH2-induced intracellular calcium mobilization. Counter screens for agonist activity and PAR1 antagonist activity were also performed. Briefly, PAR1/PAR4-expressing HEK293 cells were grown in DMEM (Life Technology, Grand Island, N.Y.) containing 10% heat-inactivated FBS, 1% Penicillin-Streptomycin, 10 μg/mL blasticidin, and 100 μg/mL Zeocin at 37° C. with 5% CO2. Cells were plated overnight prior to the experiment in a black 384-well Purecoat Amine clear bottom plate (Becton Dickinson Biosciences, San Jose, Calif.) at 10,000 cells/well in 30 μL growth medium and incubated in a humidified chamber at 37° C. with 5% CO2 overnight. Prior to compound addition, the cell medium was replaced with 40 μL of IX calcium and magnesium-containing Hank's Balanced Saline Solution (HBSS) (with 20 mM HEPES) and 1:1000 diluted fluorescent calcium indicator (Codex Biosolutions, Gaithersburg, Md.). After a 30 minute incubation period at 37° C., and a further 30 minute incubation and equilibration period at room temperature, 20 μL test compound (diluted in 1×HBSS buffer) was added at various concentrations at 0.17% dimethyl sulfoxide (DMSO) final concentration. Changes in fluorescence intensity were measured using a Functional Drug Screening System (FDSS, Hamamatsu, Japan) to determine agonist activities. The cells were then incubated for 30 minutes at room temperature followed by addition of 20 μL of agonist peptide for antagonist activity measurement. […] Compound potency was derived from 11-point concentration-response curves.

[1] = C33A, HPV-negative, 4 days, read-out: C33A (HPV−) Proliferation IC50
[2] = 96 h, Saos-2, HPV-negative, 4 days, read-out: Saos-2 (HPV−) Proliferation IC50
[3] = read-out: C33A (HPV−) Proliferation IC50 (μM)
[4] = SAOS-2, 96 h, read-out: Saos-2 (HPV−) Proliferation IC50 (μM)

Compound | IC50 (Caski (HPV16+) cells) [µM] | IC50 (C33A (HPV−) cells; [1]) [µM] | IC50 (HeLa (HPV18+) cells) [µM] | IC50 (Saos-2 (HPV−) cells; [2]) [µM] | IC50 (SiHa (HPV16+) cells) [µM] | IC50 (C33A (HPV−) cells; [3]) [µM] | IC50 (Saos-2 (HPV−) cells; [4]) [µM] | IC50 (PAR4) [µM]
COc1ccc(-c2cc(C(F)(F)F)cc3nc(OC(F)F)cnc23)cc1C(F)(F)F [Example 9, 2-(difluoromethoxy)-5-(4-methoxy-3-(trifluoromethyl)phenyl)-7-(trifluoromethyl)quinoxaline] | 3.3 | 78.7 | 1.5 | 76.2 | 1.7 |  |  | 
COc1cc(F)cc(-c2cc(C)cc3nc(OC(F)F)cnc23)c1 [Example 21, 2-(difluoromethoxy)-5-(3-fluoro-5-methoxyphenyl)-7-methylquinoxaline] | 13.3 |  | 14.7 |  | 11.7 | > 100 | > 100 | 2.2
Cc1cc(-c2cccc(OC(F)(F)F)c2)c2ncc(OC(F)F)nc2c1 [Example 26, 2-(difluoromethoxy)-7-methyl-5-(3-(trifluoromethoxy)phenyl) quinoxaline] | 6 |  | 4.6 |  | 3.8 | > 100 | > 100 | 0.4
COc1ccc(-c2cc3ncc(OC(F)F)nc3cc2C(F)(F)F)cc1 [Example 7, 2-(difluoromethoxy)-6-(4-methoxyphenyl)-7-(trifluoromethyl)quinoxaline] | 5 | > 100 | 4.4 | 92.1 | 4.3 |  |  | 
COc1ccc(-c2cc(C(F)(F)F)cc3nc(OC(F)F)cnc23)cc1F [Example 12] | 3.2 | > 99.5 | 1.1 | 14.3 | 1.3 |  |  | 
COc1ccc2cc(-c3cc(C(F)(F)F)cc4nc(OC(F)F)cnc34)ccc2c1 [Example 11, 2-(difluoromethoxy)-5-(6-methoxynaphthalen-2-yl)-7-(trifluoromethyl)quinoxaline] | 2.9 | > 99.5 | 2.1 | 45.9 | 2.7 |  |  | 
Cc1cc(-c2ccc(F)c(C(F)(F)F)c2)c2ncc(OC(F)F)nc2c1 [Example 17, 2-(difluoromethoxy)-5-(4-fluor-3-(trifluoromethyl)phenyl)-7-methylquinoxaline] | 17.9 | 58.3 | 23.7 | 96.5 | 17.8 |  |  | 
COc1cccc(-c2cc(C(F)(F)F)cc3nc(OC(F)F)cnc23)c1 [Example 10, 2-(difluoromethoxy)-5-(3-methoxyphenyl)-7-(trifluoromethyl)quinoxaline] | 3.9 | > 99.5 | 4.4 | 55 | 5.1 |  |  | 
COc1cc(-c2cc(C(F)(F)F)cc3nc(OC(F)F)cnc23)cc(C(F)(F)F)c1 [Example 13, 2-(difluoromethoxy)-5-(3-methoxy-5-(trifluoromethyl)phenyl)-7-(trifluoromethyl)quinoxaline] | 15.6 | 40.5 | 37 | 40.3 | 24 |  |  | 
Cc1cc(-c2cccc(C(F)(F)F)c2)c2ncc(OC(F)F)nc2c1 [Example 25, 2-(difluoromethoxy)-7-methyl-5-(3-(trifluoromethyl)phenyl)quinoxaline] | 14.5 | > 100 | 15.2 | > 100 | 11.7 |  |  | 
COc1ccc(-c2cc(C)cc3nc(OC(F)F)cnc23)cc1C(F)(F)F [Example 16, 2-(difluoromethoxy)-5-(4-methoxy-3-(trifluoromethyl)phenyl)-7-methylquinoxaline] | 7 | > 99.5 | 9.1 | > 99.5 | 9.4 |  |  | 
C=Cc1cc(-c2ccc(OC)cc2)c2ncc(OC(F)F)nc2c1 [Example 3, 2-(difluoromethoxy)-5-(4-methoxyphenyl)-7-vinylquinoxaline] | 61.9 |  |  |  |  | > 100 | > 100 | 0.69
COC(=O)c1cc(-c2ccc(OC)cc2)c2ncc(OC(F)F)nc2c1 [Example 4, Methyl 3-(difluoromethoxy)-8-(4-methoxyphenyl)quinoxaline-6-carboxylate] | 12.6 |  |  |  |  | 53.4 | > 100 | 1
COc1ccc(-c2cc(Br)cc3nc(OC(F)F)cnc23)cc1 [Example 27, 7-bromo-2-(difluoromethoxy)-5-(4-methoxyphenyl)quinoxaline] |  |  |  |  |  |  |  | 2.6
COc1ccc(-c2cc(C(F)(F)F)cc3ncc(OC(F)F)nc23)cc1 [Example 14, 2-(difluoromethoxy)-8-(4-methoxyphenyl)-6-(trifluoromethyl)quinoxaline] | 2.8 | 49.9 | 2.6 | 57.7 | 2.9 |  |  | 

From US10517870B2, “Aryl substituted bicycle heteroaryl compounds” (Bristol-Myers Squibb Company, priority 2015, dated 2019)
